Data from patent publication US12466834B2, “Imidazodiazepinediones and methods of use thereof” (GFB (ABC), LLC, priority 2018, dated 2025).
pIC50: −log10 of the molar value.

Tests used:
[1] = target: T1, human TRPC5 (Homo sapiens, UniProt Q9UL62); test: FLIPR calcium assay, inhibition of riluzole-activated TRPC5 calcium response; type: cell-based; conditions: ICLN-1633 cells; riluzole 30 μM stimulation; Fluo-4 calcium response; read-out: Inhibitor Potency Range (FLIPR)
T1 construct: expressed in transfected cells
T1 sequence (Q9UL62 1-973): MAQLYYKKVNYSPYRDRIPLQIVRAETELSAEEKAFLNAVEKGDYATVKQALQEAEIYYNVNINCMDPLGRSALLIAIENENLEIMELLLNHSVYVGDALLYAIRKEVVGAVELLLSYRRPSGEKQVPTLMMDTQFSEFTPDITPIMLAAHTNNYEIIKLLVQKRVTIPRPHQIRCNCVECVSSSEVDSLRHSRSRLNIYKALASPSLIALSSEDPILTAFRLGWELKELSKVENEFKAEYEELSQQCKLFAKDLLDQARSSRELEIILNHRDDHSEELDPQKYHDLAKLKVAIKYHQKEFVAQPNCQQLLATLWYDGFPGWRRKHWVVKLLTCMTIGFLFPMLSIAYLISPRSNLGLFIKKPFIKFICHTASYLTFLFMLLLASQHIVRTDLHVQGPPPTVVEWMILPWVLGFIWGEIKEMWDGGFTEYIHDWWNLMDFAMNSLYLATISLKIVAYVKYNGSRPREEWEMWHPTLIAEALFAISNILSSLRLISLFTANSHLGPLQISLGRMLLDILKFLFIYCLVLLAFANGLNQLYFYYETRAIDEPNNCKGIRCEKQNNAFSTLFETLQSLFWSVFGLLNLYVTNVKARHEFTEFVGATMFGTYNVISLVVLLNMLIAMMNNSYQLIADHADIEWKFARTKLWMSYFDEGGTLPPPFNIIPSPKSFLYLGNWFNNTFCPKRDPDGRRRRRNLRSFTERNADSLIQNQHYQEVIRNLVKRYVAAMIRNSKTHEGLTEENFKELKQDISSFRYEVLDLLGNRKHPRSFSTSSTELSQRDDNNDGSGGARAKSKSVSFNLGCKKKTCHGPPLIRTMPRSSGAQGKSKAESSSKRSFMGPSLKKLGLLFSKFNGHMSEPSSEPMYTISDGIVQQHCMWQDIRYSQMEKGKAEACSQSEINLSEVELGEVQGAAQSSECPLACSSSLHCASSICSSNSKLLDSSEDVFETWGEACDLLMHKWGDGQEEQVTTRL
Description: (§1) ICLN-1633 cells (HEK-TREx hTRPC5) expressing TRPC5 were generated as follows. Commercially available HekTrex-293 cells were seeded at 0.7×10^6 cells/well in a 1×6-well plate 24 hrs prior to transfection using 2 mL cell growth media containing no antibiotics (1× DMEM/high glucose (Hyclone #SH30022.02); 10% fetal bovine serum (Sigma) 2 mM sodium pyruvate, 10 mM HEPES). The human TRPC5 coding sequence (NM_012471 with a silent T478C mutation) was cloned into pcDNA5/TO (Invitrogen; Cat No. V103320) using hygromycin as the resistance gene and the plasmid (SEQ ID NO:1) propagated using T-Rex-293 cells (Invitrogen; Cat No. R71007) following manufacturer's directions. On day 2, 2 μg of plasmid DNA plus 6 μl of Xtreme-GENE HP reagent in Optimem (200 μl total volume) was prepared and incubated for 15 min at room temperature. This plasmid solution was then gently overlayed dropwise onto each well and the plate was gently swirled to mix complex with the media for approximately 30 seconds. Transfected cells were incubated at 37° C. in a 10% CO2 incubator for 24 hrs. The transfected cells were harvested and transferred into 2×150 mm dishes containing cell growth media with no antibiotics at 37° C.
Compounds were made up to, or supplied as a 10 mM stock solution generally using DMSO as the vehicle. 10-point dose response curves were generated using the Echo-550 acoustic dispenser. Compound source plates were made by serially diluting compound stocks to create 10 mM, 1 mM, and 0.1 mM solutions in DMSO into Echo certified LDV plates. The Echo then serially spotted 100% DMSO stock solutions into source dose response plates to generate a 4-fold dilution scheme. 100% DMSO was added to the spotted dose response plates to bring the final volume to 5 μl. 300 nl of the dose response stock plate was then spotted into pre-incubation and stimulation assay plates. 50 μl of pre-incubation buffer and 100 μl of stimulation buffer was then added to the plates resulting in a final assay test concentration range of 30 μM to 0.0001 μM with a final DMSO concentration of 0.3%.
Human ICLN-1633 cells expressing were plated onto 384 well, black poly-D-lysine-coated microplates and maintained in TRPC5 growth media the day prior to use for experiments. TRPC5 expression was induced by the application of 1 μg/mL tetracycline at the time of plating. Media was removed from the plates and 10 μl of 4 μM of Fluo-4 AM (mixed with equal volume of Pluronic F-127) in Earls's Balanced Salt Solution (EBSS) was added to the cells. Cells were incubated at room temperature, protected from light, for 60-90 minutes. After the incubation period, the dye was removed and replaced with 10 μl of EBSS. Cell, pre-incubation and stimulation plates were loaded onto the FLIPR-II and the assay was initiated. The FLIPR measured a 10 second baseline and then added 10 μl of 2× compounds (or controls). Changes in fluorescence were monitored for an additional 5 minutes. After the 5 minute pre-incubation, 20 μl of 2× riluzole (with 1× compound or controls) was added to the cell plate. The final riluzole stimulation concentration in the assay was 30 μM. After the riluzole addition, changes in fluorescence were monitored for an additional 5 minutes. Reduction in the riluzole-activated calcium response relative to control wells was reported as inhibition. A compound-mediated increase in the riluzole response relative to control riluzole response (no test agent present) with no enhancement of calcium entry during preincubation phase was reported as an agonist response.
Compound inhibition of TRPC5 calcium response was determined as follows. After the riluzole addition, fluorescence was monitored for a 5-minute period. For inhibition, the maximum relative fluorescence response (minus the control response of 1 μM of an internal control compound known to maximally block TRPC5 calcium response, the “REF INHIB” in the formula below) was captured and exported from the FLIPR. […]

[2] = target: T1, human TRPC5; test: Automated patch clamp assay (QPatch), antagonist mode; type: cell-based; conditions: HEK-TREx hTRPC5 cells; channel activated with Rosiglitazone 30 μM; normalised to ML-204 block; read-out: Qpatch Potency Range
Description: as §1
The next day selection was initiated to generate a stable pool by adding cell growth media containing 150 μg/mL Hygromycin and 5 μg/mL Blasticidin and cells were allowed to grow. Media with the selection agent was changed every 1-2 days as needed to remove dead cells. After 7 days, the hygromycin concentration was reduced to 75 μg/mL and cells growth was allowed to continue.
Single clones were selected as follows. The stable pool was diluted to 10 cells/mL and seeded (100 μl/well) into 24×96 well plates (˜1 cell/well) and allowed to grow for 7 days in cell growth media. Fresh media (100 μl) was added and the cells allowed to grow for another 1-2 weeks and then stored frozen or used immediately.
The automated electrophysiological assay was carried out at room temperature. On the day of the experiment, TRPC5 cells were cultured according to our Standard Operating Procedure. Briefly, cells were harvested using TrypLE™ Express, re-suspended in serum free medium, added to the automated platform and used within 0.5-3 hours. Internal and external physiological solutions were freshly prepared prior to the assay. The external solution contained: 145 mM NaCl, 4 mM KCl, 2 mM CaCl2, 1 mM MgCl2, 10 mM HEPES, 10 mM glucose, pH 7.4 with NaOH and 310 mOsm/L. The internal solution contained 120 mM L-aspartic acid, 120 mM CsOH·H2O, 20 mM CsCl, 2 mM MgCl2, 8.8 mM CaCl2, 10 mM EGTA, 10 mM HEPES and 2 mM Na2ATP; pH 7.2 with CsOH and 330 mOsm/L. The free internal Ca^2+ concentration was buffered to 1 μM, according to the WCabuf software. The automated electrophysiological platform QPatch 16 from Sophion (Denmark) was used to carry out the compounds profiling. The series resistance and quality of seals were continuously monitored during the experiments. Data were analyzed using Sophion QPatch assay software 5.6 (Odense). Data were normalized using the maximum activation obtained during the pre-compound agonist application as the top value (1.0) and maximum inhibition induced by ML-204 as the bottom value (0.0). IC50 values were calculated using a least squares regression algorithm (Hill equation).
To monitor the ion currents, a voltage ramp from −100 mV to +100 mV, over 300 ms, was applied every 10 seconds, from a holding potential of −60 mV. Antagonist-mode: After recording for a minimum of 60 seconds control period, the EC60 concentration of the TRPC5 agonist, Rosiglitazone (30 μM), was applied to activate the channel. After reaching steady-state, co-application of increasing concentrations of test compound were applied followed by two applications of Rosiglitazone EC60 and a saturating concentration of the specific blocker ML-204 (100 μM).

| SMILES | pIC50 [1] | pIC50 [2] |
| --- | --- | --- |
| C[C@H](c1ccc(Cl)cc1)n1c(Oc2cccc(F)c2)nc2c1C(=O)N(CCCO)CC(=O)N2C (single isomer, unassigned) [Compound 6] | < 5.00 | < 4.52 |
| C[C@@H](c1ccc(Cl)cc1)n1c(Oc2cccc(F)c2)nc2c1C(=O)N(CCCO)CC(=O)N2C (single isomer, unassigned) [Compound 7] | < 5.00 | 4.52 to 6.00 |
| CN1C(=O)CN([C@@H]2CC[C@@H](O)C2)C(=O)c2c1nc(Oc1cccc(OC(F)(F)F)c1)n2Cc1ccc(Cl)cc1 (single isomer, unassigned) [Compound 15] | 6.00 to 9.00 |  |
| CN1C(=O)CN([C@H]2CC[C@H](O)C2)C(=O)c2c1nc(Oc1cccc(OC(F)(F)F)c1)n2Cc1ccc(Cl)cc1 (single isomer, unassigned) [Compound 16] | 5.00 to 6.00 |  |
| CN1C(=O)[C@@H](CCO)N(C)C(=O)c2c1nc(Oc1cccc(OC(F)(F)F)c1)n2Cc1ccc(Cl)cc1 (single isomer, unassigned) [Compound 18] | < 5.00 | 6.00 to 9.00 |
| C[C@H]1C(=O)N(C)c2nc(Oc3cccc(F)c3)n(Cc3ccc(Cl)cc3)c2C(=O)N1CCCO (single isomer, unassigned) [Compound 20] | 6.00 to 9.00 | 4.52 to 6.00 |
| O=C1c2c(nc(Oc3cccc(OC(F)(F)F)c3)n2Cc2ccc(Cl)cc2)N2CCC[C@@H]2CN1CCCO (single isomer, unassigned) [Compound 34] | 6.00 to 9.00 |  |
| O=C1c2c(nc(Oc3cccc(OC(F)(F)F)c3)n2Cc2ccc(Cl)cc2)N2CCC[C@H]2CN1CCCO (single isomer, unassigned) [Compound 35] | 5.00 to 6.00 |  |
| CN1C(=O)CN(CC(O)CO)C(=O)c2c1nc(Oc1cccc(OC(F)(F)F)c1)n2Cc1ccc(Cl)cc1 (centres unmarked) [Compound 9, 1-[(4-chlorophenyl)methyl]-7-(2,3-dihydroxypropyl)-4-methyl-2-[3-(trifluoromethoxy)phenoxy]-1H,4H,5H,6H,7H,8H-imidazo[4,5-e][1,4]diazepine-5,8-dione] |  | 4.52 to 6.00 |
| CN1C(=O)CN(CCO)C(=O)c2c1nc(Oc1cccc(OC(F)(F)F)c1)n2Cc1ccc(Cl)cc1 [Compound 10, 1-[(4-chlorophenyl)methyl]-7-(2-hydroxyethyl)-4-methyl-2-[3-(trifluoromethoxy)phenoxy]-1H,4H,5H,6H,7H,8H-imidazo[4,5-e][1,4]diazepine-5,8-dione] | 5.00 to 6.00 |  |
| CN1C(=O)CN([C@H]2C[C@H](O)C2)C(=O)c2c1nc(Oc1cccc(OC(F)(F)F)c1)n2Cc1ccc(Cl)cc1 [Compound 13] |  | 4.52 to 6.00 |
| O=C1c2c(nc(Oc3cccc(F)c3)n2Cc2ccc(Cl)cc2)N2CCC[C@H]2C(=O)N1CCCO [Compound 26] | 6.00 to 9.00 |  |
| O=C1c2c(nc(Oc3cccc(Cl)c3)n2Cc2ccc(Cl)cc2)N2CCC[C@H]2C(=O)N1CCCO [Compound 33] | 6.00 to 9.00 |  |

Further lines, results first:

| pIC50 [1] | pIC50 [2] | SMILES |
| --- | --- | --- |
|  | < 4.52 | CN1C(=O)[C@H](CCO)N(C)C(=O)c2c1nc(Oc1cccc(OC(F)(F)F)c1)n2Cc1ccc(Cl)cc1 (single isomer, unassigned) [Compound 17] |
|  | 4.52 to 6.00 | CN1CCN(CCCO)C(=O)c2c1nc(Oc1cccc(OC(F)(F)F)c1)n2Cc1ccc(Cl)cc1 [Compound 1, 1-[(4-chlorophenyl)methyl]-7-(3-hydroxypropyl)-4-methyl-2-[3-(trifluoromethoxy)phenoxy]-1H,4H,5H,6H,7H,8H-imidazo[4,5-e][1,4]diazepin-8-one] |
| 5.00 to 6.00 |  | CCCCn1c(Oc2cccc(OC(F)(F)F)c2)nc2c1C(=O)N(CCCO)CC(=O)N2C [Compound 3] |
| 5.00 to 6.00 |  | CN1C(=O)CN(CCCO)C(=O)c2c1nc(Oc1cccc(F)c1)n2Cc1ccc(Cl)cc1 [Compound 4] |
| 5.00 to 6.00 |  | COCCCN1CC(=O)N(C)c2nc(Oc3cccc(OC(F)(F)F)c3)n(Cc3ccc(Cl)cc3)c2C1=O [Compound 8, 1-[(4-chlorophenyl)methyl]-7-(3-methoxypropyl)-4-methyl-2-[3-(trifluoromethoxy)phenoxy]-1H,4H,5H,6H,7H,8H-imidazo[4,5-e][1,4]diazepine-5,8-dione] |
| 6.00 to 9.00 |  | CCCCn1c(Oc2cccc(Cl)c2)nc2c1C(=O)N(CCCO)C(=O)[C@@H]1CCCN21 [Compound 32] |
